The text below walks through data of patent publication US20250338846A1, “COMPOSITIONS HAVING PESTICIDAL UTILITY AND PROCESSES RELATED THERETO” (CORTEVA AGRISCIENCE, LLC, priority 2022, published 2025).

Type in all cases: in vivo
Test [1] deals with Sweet Potato Whitefly (Bemisia tabaci, BEMITA). Kind of test: Bioassay 8: Sweet Potato Whitefly, spray on cotton seedlings at crawler emergence, nymphs counted 7-9 days after treatment. The conditions noted are these: F1 alone 0.8 (10^-5) Wt %.
The subject of test [2] is Diamondback Moth (Plutella xylostella, PLUTMA). Put plainly: Bioassay 9: Diamondback Moth, leaves of track-sprayed cabbage plants, mortality and feeding damage scored.
Test [3] shares this test system. The description is as above. Conditions: F1 alone 40 (10^-5) Wt %.

Regarding `CCN(C(=O)CCS(C)(=O)=O)c1sc(-c2cccnc2)nc1Cl` [Formula F1, N-(4-chloro-2-(pyridin-3-yl)thiazol-5-yl)-N-ethyl-3-(methylsulfonyl)propanamide], the “Average % Control F1” value in test [1] was 74.86%; in test [2] (F1 alone 10 (10^-5) Wt %), 0.00%; in test [2] (Feeding damage control, F1 alone 20 (10^-5) Wt %), 17.64%; in test [3] (Acute mortality), 6.82%; in test [3] (Feeding damage control), 8.53%.
